What was measured:
[1] = test system: LexACfEcR-CDEF/VP16MmRXR-LmUSP-EFchimera; experiment: Dual switch reporter assay in NIH3T3 cells, luciferase under 8opLexARE; assay type: cell-based, Choristoneura fumiferana; settings: mouse NIH3T3 cells, 0.02, 0.1, 0.5, or 2.5 μM ligand, 48 hours, FIG. 1
Source text: (§1) A polynucleotide encoding the C, D, E, and F domains from fruit fly Drosophila melanogaster EcR (“DmEcR-CDEF”; SEQ ID NO: 1) was fused to a polynucleotide encoding a GAL4 DNA binding domain (“Gal4DNABD” or “Gal4 DBD”; SEQ ID NO: 2) and placed under the control of a cytomegalovirus (CMV) promoter/enhancer (SEQ ID NO: 3). A polynucleotide encoding the C, D, E, and F domains from spruce budworm Choristoneura fumiferana EcR (“CfEcR-CDEF”; SEQ ID NO: 4) was fused to a polynucleotide encoding a LexA DNA binding domain (“LexADNABD” or “LexADBD”; SEQ ID NO: 5) and placed under the control of a cytomegalovirus (CMV) promoter/enhancer (SEQ ID NO: 3). […]
(§2) DNAs corresponding to the dual switch constructs outlined in Examples 1.1 and 1.2 were transfected into mouse NIH3T3 cells (ATCC; Example 1.1) or CHO cells (ATCC; Example 1.2) as follows. […] One μg of reporter construct and 0.25 μg of each receptor construct of the receptor pair to be analyzed were added to the transfection mix. […]
(§3) Cells were harvested 48 hours after adding ligands and reporter activities were quantified using the Dual-luciferase™ reporter assay system from Promega Corporation. […] Luciferase activity was measured using Dual-luciferase™ reporter assay system from Promega Corporation following the manufacturer's instructions. […]

[2] = target: T1, GAL4DmEcR-CDEF/VP16MmRXR-LmUSP-EFchimera (Drosophila melanogaster, UniProt P34021); experiment: Dual switch reporter assay in NIH3T3 cells, SEAP under 6XGAL4RE; assay type: cell-based; settings: mouse NIH3T3 cells, 0.02, 0.1, 0.5, or 2.5 μM ligand, 48 hours, FIG. 1
T1 construct: C, D, E, and F domains from fruit fly Drosophila melanogaster EcR (“DmEcR-CDEF”); expressed in transfected cells; host or cells: mouse NIH3T3 cells
T1 sequence (P34021 other isoform, or with tags, fused parts or gaps): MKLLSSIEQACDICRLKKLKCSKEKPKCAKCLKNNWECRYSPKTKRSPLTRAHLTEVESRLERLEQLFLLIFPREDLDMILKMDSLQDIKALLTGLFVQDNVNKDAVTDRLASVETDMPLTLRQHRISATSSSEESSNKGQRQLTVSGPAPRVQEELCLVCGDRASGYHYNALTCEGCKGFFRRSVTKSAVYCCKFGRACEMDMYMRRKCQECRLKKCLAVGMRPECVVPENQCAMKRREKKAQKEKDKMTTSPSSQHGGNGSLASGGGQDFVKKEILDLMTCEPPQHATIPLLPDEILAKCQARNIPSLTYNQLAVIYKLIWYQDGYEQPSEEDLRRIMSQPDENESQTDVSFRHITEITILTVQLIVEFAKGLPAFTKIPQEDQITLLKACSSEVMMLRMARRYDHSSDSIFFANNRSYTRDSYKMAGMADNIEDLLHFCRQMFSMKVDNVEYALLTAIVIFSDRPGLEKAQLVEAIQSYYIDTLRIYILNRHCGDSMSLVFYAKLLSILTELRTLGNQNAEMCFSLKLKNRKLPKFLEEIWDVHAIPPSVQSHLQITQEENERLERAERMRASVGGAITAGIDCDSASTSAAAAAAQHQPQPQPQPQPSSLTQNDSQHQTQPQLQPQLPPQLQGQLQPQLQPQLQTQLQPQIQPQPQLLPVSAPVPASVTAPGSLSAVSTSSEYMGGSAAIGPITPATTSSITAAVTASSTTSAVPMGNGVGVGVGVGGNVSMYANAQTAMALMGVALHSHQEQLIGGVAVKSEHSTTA
Source text: as §1, §2, §3

[3] = test system: GAL4CfEcR-DEF/VP16MmRXRα-EF; experiment: Transactivation of pFRLuc reporter in CHO cells through CfEcR; assay type: cell-based, Choristoneura fumiferana; settings: hamster CHO cells, 0.1, 1, 5, or 10 μM ligand, 48 hours, FIG. 2
Procedure: (§4) This construct was prepared as follows. A polynucleotide encoding the D, E, and F domains from spruce budworm Choristoneura fumiferana EcR (“CfEcR-DEF”; SEQ ID NO: 14) was fused to a polynucleotide encoding a GAL4DNA binding domain (“GAL4 DBD”; SEQ ID NO: 2) and placed under the control of a cytomegalovirus (CMV) promoter/enhancer (SEQ ID NO: 3). A polynucleotide encoding the C, D and E domains from green leafhopper Nephotelix cincticeps ecdysone receptor (“NcEcR-CDE”; SEQ ID NO: 15) was fused to a polynucleotide encoding a GAL4DNA binding domain (“GAL4 DBD”; SEQ ID NO: 2) and placed under the control of a cytomegalovirus (CMV) promoter/enhancer (SEQ ID NO: 3). […]
as §2, §3

[4] = test system: GAL4NcEcR-CDE/VP16MmRXRα-EF; experiment: Transactivation of pFRLuc reporter in CHO cells through NcEcR; assay type: cell-based, Nephotetix cincticeps; settings: hamster CHO cells, 0.1, 1, 5, or 10 μM ligand, 48 hours, FIG. 2
Procedure: as §4, §2, §3

| Structure (SMILES) | induction of luciferase reporter activity (LexACfEcR-CDEF switch) [1] | induction of SEAP reporter activity (GAL4DmEcR-CDEF switch) [2] | induction of luciferase reporter activity regulated by CfEcR-DEF [3] | induction of luciferase reporter activity regulated by NcEcR-CDE [4] |
| --- | --- | --- | --- | --- |
| CCc1c(OC)cccc1C(=O)NN(C(=O)c1cc(C)cc(C)c1)C(C)(C)C [GS™-E, N-(2-ethyl-3-methoxybenzoyl)-N′-(3,5-dimethylbenzoyl)-N′-tert-butylhydrazine] | luciferase activity was induced | only luciferase activity was induced | luciferase activity regulated by CfEcR-DEF was induced | does not induce reporter gene expression |
| CC(C)CC[C@@H](O)[C@](C)(O)[C@H]1CC[C@@]2(O)C3=CC(=O)[C@@H]4C[C@@H](O)[C@@H](O)C[C@]4(C)[C@H]3CC[C@]12C [PonA, ponasterone A] | only SEAP reporter activity was induced | SEAP reporter activity was induced | did not induce reporter gene expression | luciferase reporter activity regulated by NcEcR-DE was induced |

From patent publication US8728808B2, “Multiple inducible gene regulation system” (Intrexon Corporation, priority 2000, dated 2014)
